Values quoted from earlier work, collected in publication PMC8197769 (Progress in retinal and eye research, 2020).
Read-outs that look alike come from different tables or passages of the source.

Experiments:
[1] = system: patients with geographic atrophy; conditions: intravitreal; ref Gensler et al., 2018
[2] = system: patients with geographic atrophy; conditions: ref Jaffe et al., 2020
drusen = conditions: intravitreal injection, preliminary studies; ref Chi et al., 2010
[3] = system: patients with geographic atrophy; conditions: ref Holz et al., 2018
[4] = system: patients with geographic atrophy; conditions: ref Liao et al., 2020
[5] = system: patients with paroxysmal nocturnal hemoglobinuria
[6] = intravitreal injection, phase I; ref NCT01255462
[7] = system: patients with geographic atrophy; conditions: 5 mg monthly vs. sham, 150 patients; ref NCT01527500

CO[C@H]1C[C@@H]2CC[C@@H](C)[C@@](O)(O2)C(=O)C(=O)N2CCCC[C@H]2C(=O)O[C@H]([C@H](C)C[C@@H]2CC[C@@H](O)[C@H](OC)C2)CC(=O)[C@H](C)/C=C(\C)[C@@H](O)[C@@H](OC)C(=O)[C@H](C)C[C@H](C)/C=C/C=C/C=C/1C [sirolimus]
efficacy for GA [1]: did not suggest efficacy for GA

avacincaptad pegol
endophthalmitis [2]: no cases of endophthalmitis

compstatin
effect on drusen (drusen): may cause drusen regression

lampalizumab: fragment of humanized monoclonal antibody, inhibits Factor D
phase III outcome for GA [3]: negative results

pegcetacoplan
investigator-determined conversion to exudative AMD ([4]; every other month group (sham 1.2%)): 8.9%
investigator-determined conversion to exudative AMD ([4]; monthly group (sham 1.2%)): 20.9%
safety during prolonged and systemic clinical intervention ([5]; human, in vivo): acceptable safety profiles
efficacy in paroxysmal nocturnal hemoglobinuria ([5]; phase III, ref Apellis Pharmaceuticals, 2020, Castro et al.): showed efficacy

B1: tesidolumab: IgG1 antibody that prevents C5 cleavage (antibody, chains of the INN, looked up, V domains shown)
VH: EVQLVQSGAEVKKPGSSVKVSCKASGGTFSSYAISWVRQAPGQGLEWMGGIGPFFGTANYAQKFQGRVTITADESTSTAYMELSSLRSEDTAVYYCARDTPYFDYWGQGTLVTVSS
VL: SYELTQPLSVSVALGQTARITCSGDSIPNYYVYWYQQKPGQAPVLVIYDDSNRPSGIPERFSGSNSGNTATLTISRAQAGDEADYYCQSFDSSLNAEVFGGGTKLTVL
safety [6]: No significant safety events were seen
benefit for GA or vision [7]: No benefit
